In patent publication US20210371855A1, “METHODS OF INHIBITING PROLIFERATIVE CELLS” (IDEAYA BIOSCIENCES, INC., priority 2018, published 2021):

What was measured:
MMR-proficient cells = conditions: Yan et al. 2003; cited from earlier work
MMR-deficient cells = conditions: Yan et al. 2003; cited from earlier work
MLH1 reexpressing cells = experiment: 6-thioguanine sensitivity of MLH1 reexpressing cells; format: cell-based; conditions: FIG. 8C
[1] = system: MSS cell lines, SW620 and SW948; experiment: Proliferation with WRN inhibitors, IncuCyte live-cell counting over 6 days; format: cell-based; conditions: SW620 and SW948, 6 days, FIG. 12
Procedure: (§1) Cell lines were infected with NucLight Red lentivirus (Essen Biosciences cat #4476) to express a red fluorescent protein in the nucleus thus enabling live-cell counting. Two cell lines with high microsatellite instability (MSI), HCT116 and RKO, and two microsatellite stable (MSS) cell lines, SW620 and SW948, were treated with WRN inhibitors, NSC 19630 (Calbiochem cat #681647) and NSC 617145 (Sigma cat #SML 1005) as follows. Cells were counted and seeded in triplicate into a 96-well plate (500 cells/well for MSI and 1000 cells/well for MSS). The next day, the cells were treated with compounds and monitored over 6 days in an IncuCyte ZOOM instrument. The cell count from the last time point was used to calculate IC50 values using GraphPad Prism 7.

[2] = system: MSI cell lines, HCT116 and RKO; experiment: as above; format: cell-based; conditions: FIG. 12
Procedure: as §1

Compound	sensitivity of cells to 6-thioguanine (MMR-proficient cells)	sensitivity of cells to 6-thioguanine (MMR-deficient cells)	sensitivity of cells to 6-TG (MLH1 reexpressing cells)	sensitivity of MSS cell lines to the inhibitors [1]	effect on proliferation of MSI cell lines [2]
Nc1nc2nc[nH]c2c(=S)[nH]1 [6-TG, 6-thioguanine]	sensitive	resistant	more sensitive	–	–
CCC(=O)OCN1C(=O)C=CC1=O [NSC 19630]	–	–	–	differences in sensitivity	decreased proliferation
CC(C)(CN1C(=O)C(Cl)=C(Cl)C1=O)CN1C(=O)C(Cl)=C(Cl)C1=O [NSC 617145]	–	–	–	differences in sensitivity	decreased proliferation
